The record followed here is US20260240876A1, “TREATMENT OF SLEEP APNEA WITH CBD” (Harmony Biosciences Management, Inc., priority 2021, published 2026).

The assay has as its system child and adolescent patients with DEEs. Description: BELIEVE: Sleep Disturbance Scale for Children (SDSC). The settings on record: Week 26, negative = improvement, vs revised Baseline mean of completers. The assay is classed as in vivo, human. The procedure: This was a sequential, multi-stage, open-label, multi-national, multiple-center, multiple-dose study to assess the long-term safety, tolerability, and efficacy of ZYN002 (transdermal CBD gel) in child and adolescent epilepsy patients from 3 to 18 years of age having seizures associated with developmental and epileptic encephalopathies (DEE) according to the International League Against Epilepsy (ILEA) classification (Scheffer et al. 2017). The study was conducted to evaluate efficacy of ZYN002 in DEE patients with ASD. The objective of the study also included evaluating the effects of ZYN002 transdermal CBD gel on QoL, sleep, and caregiver qualitative assessment in child and adolescent patients with DEEs.
• Change from baseline to the end of Period A in the SDSC

In the case of `C=C(C)C1CCC(C)=CC1c1c(O)cc(CCCCC)cc1O` (stereo not shown) [CBD, 2-[3-methyl-6-(1-methylethenyl)-2-cyclohexen-1-yl]-5-pentyl-1,3-benzenediol], the “SDSC Sleep Breathing Disorders (SBD), Change from Baseline” value is, setting by setting: (All Patients (DEE)) “no significant change”; (DEE Patients >70 Total Score) “no significant change”; (DEE-ASD Patients >70 Total Score) −6.7; (DEE-ASD Patients) −3.9.
